Drawing on PubChem BioAssay AID330 (DTP/NCI, 2004), this text covers T/C for 21 molecules.

The test system of this test is P388 leukemia ip, CD2F1 mice, survival T/C. Kind of test: NCI In Vivo Anticancer Drug Screen. Data for tumor model P388 Leukemia (intraperitoneal) in CD2F1 (CDF1) mice. The settings on record: endpoint: median survival time, higher = longer survival. In a few lines: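 Mice carrying the transplanted tumor received test compound or vehicle. Survival was recorded in each group, and the value is the treated-group measurement divided by that of the vehicle-treated control group.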

The mark [1] stands for this setting: dose: 50.0 mg/kg/injection, schedule: Q01DX005 (ip), vehicle: saline with Tween-80.
[2] abbreviates: dose: 100.0 mg/kg/injection, schedule: Q01DX005 (ip), vehicle: saline with Tween-80.
[3] abbreviates: dose: 200.0 mg/kg/injection, schedule: Q01DX005 (ip), vehicle: saline with Tween-80.
Where [4] appears, read: dose: 50.0 mg/kg/injection, schedule: Q01DX005 (ip), vehicle: saline.
[5] abbreviates: dose: 100.0 mg/kg/injection, schedule: Q01DX005 (ip), vehicle: saline.
[6] abbreviates: dose: 200.0 mg/kg/injection, schedule: Q01DX005 (ip), vehicle: saline.
[7] abbreviates: dose: 50.0 mg/kg/injection, schedule: Q01DX009 (ip), vehicle: saline.
[8] abbreviates: dose: 100.0 mg/kg/injection, schedule: Q01DX009 (ip), vehicle: saline.
Where [9] appears, read: dose: 50.0 mg/kg/injection, schedule: Q01DX005 (ip), vehicle: Klucel (hydroxypropylcellulose) (HPC).
Where [10] appears, read: dose: 100.0 mg/kg/injection, schedule: Q01DX005 (ip), vehicle: Klucel (hydroxypropylcellulose) (HPC).

Several values for one entry are separate records, joined by “and”; a condition that tells them apart may be missing. Equal entries are not always repeated. Inconclusive results and toxic doses are left out.

As for `CSc1nc(N)c2cnn(C3OC(CO)C(O)C3O)c2n1` (centres undefined), the T/C by setting is: under setting [1], 100 % of control; under setting [2], 109 % of control; under setting [3], 100 % of control.

As to `Cc1cc(C(N)=O)c[n+](C)c1`, the T/C was 100 % of control under setting [4], 105 % of control under setting [5] and 107 % of control under setting [6].

Consider `COC(=O)C1CC(I)C2OC(=O)C1C2C(=O)OC` (centres undefined), for which the T/C (dose: 60.0 mg/kg/injection, schedule: Q01DX005 (ip), vehicle: saline with Tween-80) was 91 % of control; the T/C (dose: 120.0 mg/kg/injection, schedule: Q01DX005 (ip), vehicle: saline with Tween-80) was 99 % of control; the T/C (dose: 240.0 mg/kg/injection, schedule: Q01DX005 (ip), vehicle: saline with Tween-80) is 97 % of control.

On to `Cc1cc(O)c(C=O)c2c1C(=O)Oc1c(COC(=O)/C=C/C(=O)O)c(O)c(C(=O)O)c(C)c1O2`, for which the T/C (dose: 0.25 mg/kg/injection, schedule: Q01DX009 (ip), vehicle: saline with Tween-80) was 104 % of control; the T/C (dose: 0.5 mg/kg/injection, schedule: Q01DX009 (ip), vehicle: saline with Tween-80) was 96 % of control; the T/C (dose: 1.0 mg/kg/injection, schedule: Q01DX009 (ip), vehicle: saline with Tween-80) is 101 % of control; the T/C under setting [7] is 90 % of control; the T/C under setting [8] was 90 % of control.

Consider `CC(C)C(NC(=O)C1CCCN1)P(=O)(O)O` (centres undefined), for which the T/C (dose: 60.0 mg/kg/injection, schedule: Q01DX005 (ip), vehicle: saline) was 101 % of control; the T/C (dose: 120.0 mg/kg/injection, schedule: Q01DX005 (ip), vehicle: saline) is 104 % of control; the T/C (dose: 240.0 mg/kg/injection, schedule: Q01DX005 (ip), vehicle: saline) was 104 % of control.

Regarding `COc1c2c(c(Cc3c4c(c(OC)c5c3OCO5)OC(C)C4)c3c1OCO3)CC(C)O2` (centres undefined), the T/C runs as follows: (dose: 12.5 mg/kg/injection, schedule: Q01DX005 (ip), vehicle: saline with Tween-80) 96 % of control; (dose: 25.0 mg/kg/injection, schedule: Q01DX005 (ip), vehicle: saline with Tween-80) 94 % of control; under setting [1], 89 % of control and 95 % of control.

For the molecule `OCc1c(CO)c(C(F)(F)F)n2c1CCC2`, the T/C was 104 % of control (dose: 50.0 mg/kg/injection, schedule: Q01DX009 (ip), vehicle: Klucel (hydroxypropylcellulose) (HPC)) and 104 % of control (dose: 100.0 mg/kg/injection, schedule: Q01DX009 (ip), vehicle: Klucel (hydroxypropylcellulose) (HPC)).

As for `O=[N+]([O-])CCc1ccc(OC2OC(CO)C(O)C(O)C2O)cc1` (centres undefined), the T/C (dose: 100.0 mg/kg/injection, schedule: Q04DX002 (ip), vehicle: saline) is 104 % of control; the T/C (dose: 200.0 mg/kg/injection, schedule: Q04DX002 (ip), vehicle: saline) is 102 % of control; the T/C (dose: 400.0 mg/kg/injection, schedule: Q04DX002 (ip), vehicle: saline) was 97 % of control.

In the case of `NC(C(=O)O)C1C=CCC1` (centres undefined), the T/C reads like this: under setting [9], 106 % of control; under setting [10], 99 % of control.

With `C/C(=N\N=C(N)N)c1ccc2c(c1)Cc1cc(/C(C)=N/N=C(N)N)ccc1-2`, the T/C is 100 % of control and 107 % of control (dose: 3.12 mg/kg/injection, schedule: Q04DX002 (ip), vehicle: saline with Tween-80); 107 % of control and 108 % of control (dose: 6.25 mg/kg/injection, schedule: Q04DX002 (ip), vehicle: saline with Tween-80); 115 % of control (2×) and 122 % of control (dose: 12.5 mg/kg/injection, schedule: Q04DX002 (ip), vehicle: saline with Tween-80); 120 % of control and 121 % of control and 123 % of control (dose: 25.0 mg/kg/injection, schedule: Q04DX002 (ip), vehicle: saline with Tween-80); 115 % of control and 121 % of control and 124 % of control (dose: 50.0 mg/kg/injection, schedule: Q04DX002 (ip), vehicle: saline with Tween-80); 112 % of control and 122 % of control (dose: 100.0 mg/kg/injection, schedule: Q04DX002 (ip), vehicle: saline with Tween-80). For the setting “dose: 200.0 mg/kg/injection, schedule: Q04DX002 (ip), vehicle: saline with Tween-80”, the T/C was 122 % of control.

Consider `CN(CCS(=O)(=O)O)/N=C/c1ccc2c(c1)OCO2`, for which the T/C is 103 % of control (dose: 100.0 mg/kg/injection, schedule: Q04DX003 (ip), vehicle: Klucel (hydroxypropylcellulose) (HPC)); 100 % of control (dose: 200.0 mg/kg/injection, schedule: Q04DX003 (ip), vehicle: Klucel (hydroxypropylcellulose) (HPC)); 100 % of control (dose: 400.0 mg/kg/injection, schedule: Q04DX003 (ip), vehicle: Klucel (hydroxypropylcellulose) (HPC)).

`COc1ccc2c(c1)CN(CCc1ccc([N+](=O)[O-])cc1)CO2`: the T/C was 96 % of control under setting [1], 94 % of control under setting [2] and 96 % of control under setting [3].

On to `Cc1cc(=O)oc2c(C)c3oc4ccncc4c3cc12`, for which the T/C is, setting by setting: under setting [9], 104 % of control; under setting [10], 110 % of control; (dose: 200.0 mg/kg/injection, schedule: Q01DX005 (ip), vehicle: Klucel (hydroxypropylcellulose) (HPC)) 107 % of control.

Turning to `CCCCN(CCCC)CCNc1ccc(C)c2sc3cc(Cl)ccc3c(=O)c12`, the T/C is, setting by setting: (dose: 12.5 mg/kg/injection, schedule: Q01DX005 (ip), vehicle: Klucel (hydroxypropylcellulose) (HPC)) 95 % of control; (dose: 25.0 mg/kg/injection, schedule: Q01DX005 (ip), vehicle: Klucel (hydroxypropylcellulose) (HPC)) 101 % of control; under setting [9], 99 % of control and 101 % of control; under setting [10], 96 % of control.

On to `Nc1nc2c([nH]c(=O)n2C2OC(CO)C(O)C2O)c(=O)[nH]1` (centres undefined), for which the T/C runs as follows: under setting [4], 109 % of control; under setting [5], 110 % of control; under setting [6], 112 % of control.

In the case of `O=NNc1nccnn1`, the T/C was 105 % of control (dose: 3.12 mg/kg/injection, schedule: Q01DX009 (ip), vehicle: water); 107 % of control (dose: 6.25 mg/kg/injection, schedule: Q01DX009 (ip), vehicle: water); 105 % of control (dose: 12.5 mg/kg/injection, schedule: Q01DX009 (ip), vehicle: water); 108 % of control and 111 % of control (dose: 25.0 mg/kg/injection, schedule: Q01DX009 (ip), vehicle: water); 114 % of control and 118 % of control (dose: 50.0 mg/kg/injection, schedule: Q01DX009 (ip), vehicle: water); 120 % of control (dose: 100.0 mg/kg/injection, schedule: Q01DX009 (ip), vehicle: water). In addition, the T/C (dose: 200.0 mg/kg/injection, schedule: Q01DX009 (ip), vehicle: water) is 119 % of control.

For `C[N+](C)(C)CCOC(=O)CCC(=O)OCC[N+](C)(C)C`, the T/C is 104 % of control (dose: 312.0 micrograms/kg/injection, schedule: Q01DX009 (ip), vehicle: saline); 90 % of control (dose: 625.0 micrograms/kg/injection, schedule: Q01DX009 (ip), vehicle: saline); 109 % of control (dose: 1250.0 micrograms/kg/injection, schedule: Q01DX009 (ip), vehicle: saline).

As to `Nc1ccc(-c2ccc(N)cc2)cc1`, the T/C is, setting by setting: (dose: 100.0 mg/kg/injection, schedule: Q01DX009 (ip), vehicle: saline with Tween-80) 90 % of control; (dose: 200.0 mg/kg/injection, schedule: Q01DX009 (ip), vehicle: saline with Tween-80) 100 % of control; (dose: 400.0 mg/kg/injection, schedule: Q01DX009 (ip), vehicle: saline with Tween-80) 95 % of control.

Consider `O=C1CCCCC1O` (centres undefined), for which the T/C by setting is: under setting [7], 104 % of control and 106 % of control; under setting [8], 100 % of control and 103 % of control; (dose: 200.0 mg/kg/injection, schedule: Q01DX009 (ip), vehicle: saline) 110 % of control and 97 % of control; (dose: 400.0 mg/kg/injection, schedule: Q01DX009 (ip), vehicle: saline) 88 % of control and 95 % of control.

On to `CCCC(Nc1nncs1)Nc1nncs1`, for which the T/C runs as follows: under setting [1], 101 % of control; under setting [2], 112 % of control and 94 % of control; under setting [3], 108 % of control; (dose: 400.0 mg/kg/injection, schedule: Q01DX005 (ip), vehicle: saline with Tween-80) 157 % of control.

Regarding `N#[N+]c1c([O-])ccc2ccccc12`, the T/C is 92 % of control (dose: 25.0 mg/kg/injection, schedule: Q04DX002 (ip), vehicle: Klucel (hydroxypropylcellulose) (HPC)); 104 % of control (dose: 50.0 mg/kg/injection, schedule: Q04DX002 (ip), vehicle: Klucel (hydroxypropylcellulose) (HPC)); 90 % of control (dose: 100.0 mg/kg/injection, schedule: Q04DX002 (ip), vehicle: Klucel (hydroxypropylcellulose) (HPC)).
